In US20170002011A1, “BENZENE SULFONAMIDES AS CCR9 INHIBITORS” (NORGINE B.V., priority 2013, published 2017):

Experiments:
[1] = biological target: T1, CCR9 (Homo sapiens, UniProt P51686); assay: FLIPR calcium flux assay using MOLT4 cells (TECK stimulation); format: cell-based; parameters: endogenous in cells; host or cells: MOLT4 (human T-cell line); settings: MOLT4 cells (a human T-cell line); Ki determined from IC50 of TECK-induced intracellular calcium increase
T1 sequence (P51686 1-369): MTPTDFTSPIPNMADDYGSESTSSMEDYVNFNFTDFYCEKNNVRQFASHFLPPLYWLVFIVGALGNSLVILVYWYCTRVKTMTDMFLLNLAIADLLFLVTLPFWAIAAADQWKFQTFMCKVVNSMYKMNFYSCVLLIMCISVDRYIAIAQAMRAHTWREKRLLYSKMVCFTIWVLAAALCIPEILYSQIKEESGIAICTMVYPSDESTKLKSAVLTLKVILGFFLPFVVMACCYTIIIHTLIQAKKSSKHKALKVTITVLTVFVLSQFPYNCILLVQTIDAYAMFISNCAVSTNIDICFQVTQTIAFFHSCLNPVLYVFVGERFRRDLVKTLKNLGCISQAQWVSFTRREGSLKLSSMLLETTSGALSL
Procedure: Biological Activity: FLIPR Assay Using MOLT4 Cells
A calcium flux assay was used to determine the ability of the compounds to interfere with the binding between CCR9 and its chemokine ligand (TECK) in MOLT4 cells (a human T-cell line). MOLT4 cells were seeded (100,000 cells/well) in coming cell culture plates (Cat #3603) in assay buffer (lx HBSS, 20 mM HEPES) containing 2.5 mM Probenecid. The plate was centrifuged at 1200 rpm for 3 minutes and incubated at 37° C./5% CO2 for 2 hours. A 0.3× Fluo-4 NW calcium dye was prepared in assay buffer containing 5 mM Probenecid and stored in the dark. Each well was loaded with 25 μL of 0.3× Fluo-4 NW calcium dye and incubated at 37 C/5% CO2 for 60 minutes and then at room temperature for 30 minutes. A half-log serially diluted concentration response curve was prepared at a 4× concentration for each (10 μM-0.1 nM final assay concentration) and 25 μL of the compound then transferred to the cells (100 μL final volume) for 60 minutes prior to stimulation (30 minutes at 37° C./5% CO2 and 30 minutes at room temperature). TECK was diluted to 5× its EC50 in assay buffer (containing 0.1% [w/v] bovine serum albumin [BSA]) and 25 μL dispensed through the FLIPR instrument to stimulate the cells (125 μL final volume). The increased in intracellular calcium levels was measured with the FLIPR instrument. The potency of the compound as CCR9 antagonist was calculated as an IC50 using GraphPad Prism software (variable slope four parameter). The Ki of the compound was determined from the IC50 values using the following equation.
(§1) Ki calculation: IC50/1+(Agonist (TECK) conc. used in assay/EC50 of agonist (TECK) generated on day of experiment)

[2] = biological target: T1, CCR9; assay: FLIPR calcium flux assay using hCCR9 over expressed cells (TECK stimulation); format: cell-based; parameters: expressed in transfected cells; host or cells: Chem-1 cells overexpressing hCCR9; settings: Chem1-hCCR9 overexpressing cells; Ki determined from IC50 of TECK-induced intracellular calcium increase
Procedure: Biological Activity: FLIPR Assay Using hCCR9 Over Expressed Cells
A calcium flux assay was used to determine the ability of the compounds to interfere with the binding between CCR9 and its chemokine ligand (TECK) in Cheml-hCCR9 overexpressing cells. hCCR9 overexpressing cells were seeded (25,000 cells/well) into black Poly-D-Lysine coated clear bottom 96-well plates (BD Biosciences, Cat #356640) and incubated overnight at 37° C./5% CO2 in a humidified incubator. Media was aspirated and cells washed twice with 100 μL assay buffer (1×HBSS, 20 mM HEPES) containing 2.5 mM Probenecid. A 0.3× Fluo-4 NW calcium dye was prepared in assay buffer containing 5 mM Probenecid and stored in the dark. Each well was loaded with 100 μL of 0.3× Fluo-4 NW calcium dye and incubated at 37° C./5% CO2 for 60 minutes and then at room temperature for 30 minutes. A half-log serially diluted concentration response curve was prepared at a 3× final assay concentration for each compound (10 μM−0.1 nM final assay concentration) and 50 μL of the compound then transferred to the cells (150 μL final volume) for 60 minutes prior to stimulation (30 minutes at 37° C./5% CO2 and 30 minutes at room temperature). TECK was diluted to 4× its ECso in assay buffer (containing 0.1% [w/v] bovine serum albumin[BSA]) and 50 μL dispensed through the fluorometric imaging plate reader (FLIPR) instrument to stimulate the cells (200 μL final volume). The increase in intracellular calcium levels was measured with the FLIPR instrument. The potency of the compound as a CCR9 antagonist was calculated as an IC50 using GraphPad Prism software (variable slope four parameter). The Ki of the compound was determined from the IC50 values using the following equation.
as §1

Ki [1] [nM] | Ki [2] [nM] | Structure (SMILES)
703 | 1950 | CC(C)(C)c1ccc(S(=O)(=O)Nc2ccnc3cc(C4CC4)nn23)cc1 [Compound 37, 4-(tert-butyl)-N-(2-cyclopropylpyrazolo[1,5-a]pyrimidin-7-yl)benzenesulfonamide]
295 | 1520 | CC(C)c1cc2nccc(NS(=O)(=O)c3ccc(C(C)(C)C)cc3)n2n1 [Compound 79, 4-(tert-butyl)-N-(2-isopropylpyrazolo[1,5-a]pyrimidin-7-yl)benzenesulfonamide]
111 | 1800 | CCc1cc2nccc(NS(=O)(=O)c3ccc(C(C)(C)C)cc3)n2n1 [Compound 85, 4-(tert-butyl)-N-(2-ethylpyrazolo[1,5-a]pyrimidin-7-yl)benzenesulfonamide]
162 | 181 | Cc1cc2c(Cl)ccc(NS(=O)(=O)c3ccc(C(C)(C)C)cc3)n2n1 [Compound 94, 4-(tert-butyl)-N-(4-chloro-2-methylpyrazolo[1,5-a]pyridin-7-yl)benzenesulfonamide]
2 | 110 | Cc1cc2c(C#N)ccc(NS(=O)(=O)c3ccc(C(C)(C)C)cc3)n2n1 [Compound 95, 4-(tert-butyl)-N-(4-cyano-2-methylpyrazolo[1,5-a]pyridin-7-yl)benzene sulfonamide]
109 | 512 | Cc1cc2c(Cl)ccc(NS(=O)(=O)c3ccc(C(C)(C)C#N)cc3)n2n1 [Compound 98]
285 | 56 | CC(C)(C)c1ccc(S(=O)(=O)Nc2ccc(Cl)c3cc(C4CC4)nn23)cc1 [Compound 105]
115 | 394 | CC(C)(C)c1ccc(S(=O)(=O)Nc2ccc(Cl)c3cc(-c4cccnc4)nn23)cc1 [Compound 110, 4-(tert-butyl)-N-(4-chloro-2-(pyridin-3-yl)pyrazolo[1,5-a]pyridin-7-yl)benzenesulfonamide]
56 | 190 | CC(C)(C)c1ccc(S(=O)(=O)Nc2ccc(Cl)c3cc(-c4ccc[n+]([O-])c4)nn23)cc1 [Compound 111, 3-(7-((4-(tert-butyl)phenyl)sulfonamido)-4-chloropyrazolo[1,5-a]pyridin-2-yl)pyridine 1-oxide]
187 | 756 | O=S(=O)(Nc1ccc(Cl)c2cc(-c3cccnc3)nn12)c1ccc(C(F)(F)F)cc1 [Compound 113]
87 | 159 | CC(C)(C)c1ccc(S(=O)(=O)Nc2ccc(C#N)c3cc(-c4cccnc4)nn23)cc1 [Compound 149, 4-(tert-butyl)-N-(4-cyano-2-(pyridin-3-yl)pyrazolo[1,5-a]pyridin-7-yl)benzenesulfonamide]
41 | 125 | Cn1nccc1-c1cc2c(C#N)ccc(NS(=O)(=O)c3ccc(C(C)(C)C)cc3)n2n1 [Compound 152]
51 | 107 | CC(C)(C)c1ccc(S(=O)(=O)Nc2ccc(C#N)c3cc(-c4cncc(F)c4)nn23)cc1 [Compound 156, 4-(tert-butyl)-N-(4-cyano-2-(5-fluoropyridin-3-yl)pyrazolo[1,5-a]pyridin-7-yl)benzenesulfonamide]
48 | 186 | Cc1cc(-c2cc3c(C#N)ccc(NS(=O)(=O)c4ccc(C(C)(C)C)cc4)n3n2)n(C)n1 [Compound 158]
96 | 136 | Cn1ccc(-c2cc3c(C#N)ccc(NS(=O)(=O)c4ccc(C(C)(C)C)cc4)n3n2)c1 [Compound 159]
62 | 127 | COc1cncc(-c2cc3c(C#N)ccc(NS(=O)(=O)c4ccc(C(C)(C)C)cc4)n3n2)c1 [Compound 161]
34 | 112 | CC(C)(C)c1ccc(S(=O)(=O)Nc2ccc(C#N)c3cc(-c4cn[nH]c4)nn23)cc1 [Compound 164, 4-(tert-butyl)-N-(4-cyano-2-(1H-pyrazol-4-yl)pyrazolo[1,5-a]pyridin-7-yl)benzenesulfonamide]

Ki [1] [nM] | Ki [2] [nM] | Structure (SMILES)
164 | 343 | CC(C)(C)c1ccc(S(=O)(=O)Nc2ccc(Cl)c3cc(-c4cnco4)nn23)cc1 [Compound 169, 4-(tert-butyl)-N-(4-chloro-2-(oxazol-5-yl)pyrazolo[1,5-a]pyridin-7-yl)benzenesulfonamide]
79 | 129 | CC(C)(C)c1ccc(S(=O)(=O)Nc2ccc(Cl)c3cc(-c4ccsc4C(=O)O)nn23)cc1 [Compound 172, 3-(7-((4-(tert-butyl)phenyl)sulfonamido)-4-chloropyrazolo[1,5-a]pyridin-2-yl)thiophene-2-carboxylic acid]
30 | 133 | CC(C)(C)c1ccc(S(=O)(=O)Nc2c(C#N)ccc3cc(-c4cccnc4)nn23)cc1 [Compound 180, 4-(tert-butyl)-N-(6-cyano-2-(pyridin-3-yl)pyrazolo[1,5-a]pyridin-7-yl)benzenesulfonamide]
80 | 168 | Cn1cnc(-c2cc3c(Cl)ccc(NS(=O)(=O)c4ccc(C(C)(C)C)cc4)n3n2)c1 [Compound 182]
95 | 94 | Cn1ccc(-c2cc3c(Cl)ccc(NS(=O)(=O)c4ccc(C(C)(C)C)cc4)n3n2)n1 [Compound 183]
22 | 17 | Cn1ccc(-c2cc3c(C#N)ccc(NS(=O)(=O)c4ccc(C(C)(C)C)cc4)n3n2)n1 [Compound 184]
31 | 67 | CC(C)n1cc(-c2cc3c(Cl)ccc(NS(=O)(=O)c4ccc(C(C)(C)C)cc4)n3n2)cn1 [Compound 186]
10 | 22 | CCn1cc(-c2cc3c(C#N)ccc(NS(=O)(=O)c4ccc(C(C)(C)C)cc4)n3n2)cn1 [Compound 189]
54 | 114 | Cc1c(-c2cc3c(C#N)ccc(NS(=O)(=O)c4ccc(C(C)(C)C)cc4)n3n2)cnn1C [Compound 190]
19 | 9 | CC(C)n1cc(-c2cc3c(C#N)ccc(NS(=O)(=O)c4ccc(C(C)(C)C)cc4)n3n2)cn1 [Compound 191]
161 | 183 | Cn1nnc(-c2cc3c(Cl)ccc(NS(=O)(=O)c4ccc(C(C)(C)C)cc4)n3n2)n1 [Compound 192]
26 | 54 | COc1ccc(-c2cc3c(C#N)ccc(NS(=O)(=O)c4ccc(C(C)(C)C)cc4)n3n2)cn1 [Compound 198]
105 | 63 | Cc1cncc(-c2cc3c(Cl)ccc(NS(=O)(=O)c4ccc(C(C)(C)C)cc4)n3n2)c1 [Compound 199]
20 | 12 | Cc1cncc(-c2cc3c(C#N)ccc(NS(=O)(=O)c4ccc(C(C)(C)C)cc4)n3n2)c1 [Compound 200]
107 | 127 | COc1ncccc1-c1cc2c(C#N)ccc(NS(=O)(=O)c3ccc(C(C)(C)C)cc3)n2n1 [Compound 202]
85 | 149 | Cc1ncccc1-c1cc2c(Cl)ccc(NS(=O)(=O)c3ccc(C(C)(C)C)cc3)n2n1 [Compound 203]
